“Also recorded” adds a separate entry of the source. Where no end group is shown, it is not given here.
Experiments:
Assay type in all cases: in vivo
rat incisional wounds [1] = assay: Microscopic Wound Index (wound width, cellularity, inflammation, epithelial covering) of day three rat incisional wounds; details: for wound index score / wound width score (Wound Index parameter): day three, combined scores of 3 observers; for wound index score: FIG. 5; for wound width score (Wound Index parameter): FIG. 6
Protocol: (§1) The effects of the peptide on wound healing and scar formation were assessed with reference to the following parameters: • i) The macroscopic quality of the wounds. This was assessed using a rat macroscopic wound assessment protocol as follows. Macroscopic appearance was scored using a Visual Analogue Scale (VAS) consisting of a 10 cm line representing a scale from 0 (denoted by a mark at 0 cm) indicating a “good” wound to 10 (denoted by a mark at 10 cm) indicating a “poor” wound. In assessing the quality of the wound a mark representative of the score conferred was made on the 10 cm line based on the gape and quality of healing of the wound. The best-healed wounds were scored towards the good wound end of the scale (the left hand side of the VAS line) and the poorly healed ones were scored towards the poor wound end of the scale (the right hand side of the VAS line). The marks awarded were measured from the left hand side to provide the final value for the wound assessment in centimetres (to 1 decimal place). • ii) The microscopic width of wounds. The microscopic width of wounds was measured using image analysis of histological sections of wounds. Wounds were analysed using a Leica DM RXA Microscope and a Leica QWin Image Analyser. Linear wound width was measured with a straight line from the left wound margin (where the epidermis begins to thicken) to the right wound margin (where the epidermis begins to thicken). • iii) The re-epithelialisation of wounds. The extent of re-epithelialisation of wounds was measured using image analysis of histological sections of wounds. The percentage re-epithelialisation was calculated by first measuring the non-epithelialised wound diameter. The non-epithelialised wound length was measured with a straight line from the left hand non-epithelialised wound edge to the right hand non-epithelialised wound edge. The non-epithelialised wound edges were identified as the current position of the epithelium in the wound during healing. The re-epithelialisation width was then calculated by subtracting the non re-epithelialised width from the wound width. The percentage re-epithelialisation was then calculated accordingly. • iv) The microscopic quality of the wounds. This was assessed using microscopic Wound Index sheets analysed in accordance with the protocol described below. Evaluation of the microscopic quality of the wounds included an assessment of inflammatory response present in the wounds, as well as assessment of the cellularity of the wounds.
Wound index assesses the quality of the wound and gives an assessment based upon the following parameters: wound width (scored out of 10; 1 being a very narrow wound and 10 being a very wide wound); total cellularity of the wound (scored out of 5; 1 being a wound containing a low number of cells and 5 being a wound with a high number of cells); inflammatory cell number (scored out of 5; 1 being a low number of inflammatory cells and 5 being a high number of inflammatory cells); and epithelial covering (scored 0 for complete coverage and 1 for incomplete coverage). The final wound index score is derived by adding the scores for each parameter. A higher wound index value indicates a wound of low quality, whilst a lower wound index value represents a wound of relatively higher quality. • v) The macroscopic quality of scars. This was assessed using a rat macroscopic scar assessment protocol as follows. Macroscopic appearance was scored using a Visual Analogue Scale (VAS) consisting of a 10 cm line representing a scale from 0 corresponding to normal skin to 10 corresponding to a bad scar. A mark was made on the 10 cm line based on an overall assessment of the scar taking into account parameters such as the height, width, contour and colour of the scar. […]

rat incisional wounds [2] = assay: Percentage re-epithelialisation by image analysis of day three rat incisional wounds; details: FIG. 4
Protocol: The effects of the peptide on wound healing and scar formation were assessed with reference to the following parameters: • i) The macroscopic quality of the wounds. This was assessed using a rat macroscopic wound assessment protocol as follows. Macroscopic appearance was scored using a Visual Analogue Scale (VAS) consisting of a 10 cm line representing a scale from 0 (denoted by a mark at 0 cm) indicating a “good” wound to 10 (denoted by a mark at 10 cm) indicating a “poor” wound. In assessing the quality of the wound a mark representative of the score conferred was made on the 10 cm line based on the gape and quality of healing of the wound. The best-healed wounds were scored towards the good wound end of the scale (the left hand side of the VAS line) and the poorly healed ones were scored towards the poor wound end of the scale (the right hand side of the VAS line). The marks awarded were measured from the left hand side to provide the final value for the wound assessment in centimetres (to 1 decimal place). • ii) The microscopic width of wounds. The microscopic width of wounds was measured using image analysis of histological sections of wounds. Wounds were analysed using a Leica DM RXA Microscope and a Leica QWin Image Analyser. Linear wound width was measured with a straight line from the left wound margin (where the epidermis begins to thicken) to the right wound margin (where the epidermis begins to thicken). • iii) The re-epithelialisation of wounds. The extent of re-epithelialisation of wounds was measured using image analysis of histological sections of wounds. The percentage re-epithelialisation was calculated by first measuring the non-epithelialised wound diameter. The non-epithelialised wound length was measured with a straight line from the left hand non-epithelialised wound edge to the right hand non-epithelialised wound edge. […] The re-epithelialisation width was then calculated by subtracting the non re-epithelialised width from the wound width. The percentage re-epithelialisation was then calculated accordingly. • iv) The microscopic quality of the wounds. […]

rat incisional wounds [3] = assay: Microscopic wound width by image analysis of day three rat incisional wounds; details: for wound width at the mid-points of incisional wounds: FIG. 3; for wound width at the top of incisional wounds: FIG. 2
Protocol: as §1
(§2) Rat incisional wounds formed in accordance with well-accepted experimental models (previously described in Shah et al. 1994) were treated with peptide Ala-Tyr-Met-Thr-Met-Lys-Ile-Arg-Asn (Sequence ID No. 2) at concentrations of 50, 125, 250 […] ng/100 μl. Treated and control wounds were harvested at three days post-wounding, and scars derived from treated and control wounds harvested at seventy days post-wounding.
(§3) Four wounds were made on each experimental animal (rat), of which two were treated with the trial concentrations of the peptide. The peptide was administered by intradermal injection on the day of wounding and at one day following wounding.
The experimental animals for wound analysis were killed on the third day post-wounding, and wounds harvested for histology.
Wound widths and percentage re-epithelialisation of incisions were measured by Image Analysis in accordance with the protocols described above. […]

rat incisional wounds [4] = assay: Macroscopic scar quality (VAS) of day seventy scars from rat incisional wounds; details: FIG. 9
Text: Wound index assesses the quality of the wound and gives an assessment based upon the following parameters: wound width (scored out of 10; 1 being a very narrow wound and 10 being a very wide wound); total cellularity of the wound (scored out of 5; 1 being a wound containing a low number of cells and 5 being a wound with a high number of cells); inflammatory cell number (scored out of 5; 1 being a low number of inflammatory cells and 5 being a high number of inflammatory cells); and epithelial covering (scored 0 for complete coverage and 1 for incomplete coverage). The final wound index score is derived by adding the scores for each parameter. A higher wound index value indicates a wound of low quality, whilst a lower wound index value represents a wound of relatively higher quality. • v) The macroscopic quality of scars. This was assessed using a rat macroscopic scar assessment protocol as follows. Macroscopic appearance was scored using a Visual Analogue Scale (VAS) consisting of a 10 cm line representing a scale from 0 corresponding to normal skin to 10 corresponding to a bad scar. A mark was made on the 10 cm line based on an overall assessment of the scar taking into account parameters such as the height, width, contour and colour of the scar. The best scars (typically small width and colour, height and contour like normal skin) were scored towards the normal skin end of the scale (the left hand side of the VAS line) and bad scars (typically large width, raised with uneven contours and whiter colour) were scored towards the bad scar end of the scale (the right hand side of the VAS line). The marks were measured from the left hand side to provide the final value for the scar assessment in centimetres (to 1 decimal place).
as §2, §3
Scars for analysis were harvested from experimental animals killed on the seventieth day post-wounding.
Macroscopic quality of scars was assessed using macroscopic scar assessment sheets scored by two observers in accordance with the protocols described above.
Statistical analysis was carried out using a one-factor analysis of variance (ANOVA) followed by the Mann-Whitney U (MWU) test. […]

rat incisional wounds [5] = assay: Macroscopic wound quality (VAS) of day three rat incisional wounds; details: day 0 and 1, p<0.05 vs naïve wounds, FIG. 1
Protocol: The effects of the peptide on wound healing and scar formation were assessed with reference to the following parameters: • i) The macroscopic quality of the wounds. This was assessed using a rat macroscopic wound assessment protocol as follows. Macroscopic appearance was scored using a Visual Analogue Scale (VAS) consisting of a 10 cm line representing a scale from 0 (denoted by a mark at 0 cm) indicating a “good” wound to 10 (denoted by a mark at 10 cm) indicating a “poor” wound. In assessing the quality of the wound a mark representative of the score conferred was made on the 10 cm line based on the gape and quality of healing of the wound. The best-healed wounds were scored towards the good wound end of the scale (the left hand side of the VAS line) and the poorly healed ones were scored towards the poor wound end of the scale (the right hand side of the VAS line). The marks awarded were measured from the left hand side to provide the final value for the wound assessment in centimetres (to 1 decimal place). • ii) The microscopic width of wounds. The microscopic width of wounds was measured using image analysis of histological sections of wounds. Wounds were analysed using a Leica DM RXA Microscope and a Leica QWin Image Analyser. […] The extent of re-epithelialisation of wounds was measured using image analysis of histological sections of wounds. […]

[6] = 125 ng/100 μl, p<0.01 vs naïve wounds

“AYMTMKIRN [peptide of Sequence ID No. 2, peptide based on the C-terminal portion of interleukin 10 (IL-10)]” was tested, and the wound index score (rat incisional wounds [1]; 50 ng/100 μl) was “lower wound index scores than did control wounds”, the “wound width score (Wound Index parameter)” value (rat incisional wounds [1]; 50 ng/100 μl) was “lower wound width scores than controls” and the wound index score (rat incisional wounds [1]; 125 ng/100 μl) was “lower wound index scores than did control wounds”. The “wound width score (Wound Index parameter)” value (rat incisional wounds [1]; 125 ng/100 μl) was “lower wound width scores than controls”, the wound index score (rat incisional wounds [1]; 250 ng/100 μl) was “lower wound index scores than did control wounds; also recorded: lowest wound index scores” and the “wound width score (Wound Index parameter)” value (rat incisional wounds [1]; 250 ng/100 μl) was “lower wound width scores than controls”. The “cellularity of treated wounds” value (rat incisional wounds [1]; day three incisional wounds, combined observers, FIG. 7) was “did not reduce cellularity of treated wounds”, the “inflammatory response in treated wounds” value (rat incisional wounds [1]; day three incisional wounds, combined observers, FIG. 8) was “did not reduce cellularity of treated wounds, or cause a reduction of the inflammatory response” and the “percentage of the tops of incisional wounds covered by re-epithelialisation” value (“percentage” below) (rat incisional wounds [2]; 50 ng/100 μl) was “appeared to exhibit an increase in the extent of re-epithelialisation”. For the same sequence, the “percentage” value (rat incisional wounds [2]; 125 ng/100 μl) was “appeared to exhibit an increase in the extent of re-epithelialisation”, the “percentage” value (rat incisional wounds [2]; 250 ng/100 μl, p<0.01 vs naïve, p<0.05 vs diluent alone) was “significant increase in the extent of re-epithelialisation” and the “wound width at the mid-points of incisional wounds” value (“wound width at the mid-points” below) (rat incisional wounds [3]; 50 ng/100 μl, p<0.05 vs naïve wounds) was “significant decrease in wound width”. The “wound width at the top of incisional wounds” value (rat incisional wounds [3]; [6]) was “significant decrease in wound width”, the “wound width at the mid-points” value (rat incisional wounds [3]; [6]) was “significant decrease in wound width” and the “wound width at the top of incisional wounds” value (rat incisional wounds [3]; 250 ng/100 μl, p<0.01 vs naïve wounds) was “significant decrease in wound width”. For the same sequence, the “wound width at the mid-points” value (rat incisional wounds [3]; 250 ng/100 μl, p<0.01 vs naïve, p<0.05 vs diluent control wounds) was “significant decrease in wound width”, the “macroscopic visual analogue (VAS) score, scar quality” value (rat incisional wounds [4]; 50 ng/100 μl, p<0.05 vs naïve control wounds) was “significantly improved scarring” and the “macroscopic visual analogue (VAS) score, scar quality” value (rat incisional wounds [4]; 125 ng/100 μl, p<0.05 vs naïve control wounds) was “significantly improved scarring”. The “macroscopic visual analogue (VAS) score, scar quality” value (rat incisional wounds [4]; 250 ng/100 μl, p<0.01 vs naïve and diluent control wounds, 2 observers) was “significant improvement in macroscopic quality”, the “macroscopic visual analogue (VAS) score, scar quality” value (rat incisional wounds [4]; 500 ng/100 μl, p<0.05 vs naïve control wounds) was “significantly improved scarring” and the “macroscopic visual analogue (VAS) score, wound quality” value (rat incisional wounds [5]; 125 ng/100 μl intradermal) was “significant improvement in the macroscopic quality”. For the same sequence, the “macroscopic visual analogue (VAS) score, wound quality” value (rat incisional wounds [5]; 250 ng/100 μl intradermal) was “significant improvement in the macroscopic quality”.

From patent publication US20150218222A1, “Medicaments” (ARMO BioSciences, Inc., priority 2005, published 2015)
